Assays:
Format in all cases: in vitro ADME
[1] = Hepatic phase I metabolism, incubation with horse liver microsomes and NADPH-regenerating system; settings: for identified pI metabolites: horse liver microsomes 5 mg/mL, 0.04 mg/mL PSD, 90 min, 37 °C, HPLC-Orbitrap-HRMS; for extent of pI transformation / metabolite formation: horse microsomes compared with human microsomes
[2] = Hepatic phase I metabolism, incubation with human liver microsomes and NADPH-regenerating system; settings: for main pI metabolite: human liver microsomes 5 mg/mL, 0.04 mg/mL PSD, 90 min, 37 °C, HPLC-DAD-Orbitrap-HRMS
[3] = Hepatic phase II metabolism (glucuronidation), human liver microsomes with UDPGA
[4] = Hepatic phase II metabolism (glucuronidation), horse liver microsomes with UDPGA; settings: UDPGA 0.3 mM, 0.02 mg/mL PSD, 90 min, HPLC-Orbitrap-HRMS
[5] = Hepatic phase II metabolism (sulfation), horse liver cytosol with PAPS; settings: horse cytosol compared with human cytosol (Figure 7b)
[6] = Hepatic phase II metabolism (sulfation), human liver cytosol with PAPS; settings: HPLC-QTOF-HRMS

Compound | identified pI metabolites [1] | extent of pI transformation / metabolite formation [1] | main pI metabolite [2] | also measured
C[C@@H]1CC[C@H]2C(C)(C)[C@H](O)CC[C@]2(C)[C@@]12Cc1c(O)cc3c(c1O2)CNC3=O [STLAC, stachybotrylactam] | all but the desaturated metabolites were formed | comparable to human microsomes | oxidized metabolites ([+O]) | 
CC(=O)O[C@@H]1[C@H](OC(C)=O)C[C@@]2(C)[C@@H](CC[C@@H](C)[C@]23Cc2c(OC4O[C@H](C(=O)O)[C@@H](O)[C@H](O)[C@H]4O)cc(CO)c(C=O)c2O3)C1(C)C (stereo partly shown) [STBON D +GlcA] |  |  |  | glucuronide (+GlcA) formation ([3]; human microsomes, UDPGA 0.3 mM, 0.02 mg/mL PSD, 90 min, HPLC-Orbitrap-HRMS): identified; glucuronide (+GlcA) formation [4]: identified
C[C@@H]1CC[C@H]2C(C)(C)[C@H](O)CC[C@]2(C)[C@@]12Cc1c(O)cc(CO)c(C=O)c1O2 [L-671, L-671,667] | L-671 [+O2–H2] could not be detected |  |  | conversion in sulfation experiments [5]: Opposite observations; variation in potential pI metabolites ([2]; HPLC-Orbitrap-HRMS experiments, compared among the four PSDs): largest variation in potential pI metabolites; abundance of sulfate signals among the PSDs [6]: most abundant sulfate signals; number of signals in the XIC of the sulfate (isomers) [6]: two signals
CC(=O)O[C@@H]1[C@H](OC(C)=O)C[C@@]2(C)[C@@H](CC[C@@H](C)[C@]23Cc2c(O)cc(CO)c(C=O)c2O3)C1(C)C [STBON D, stachybonoid D] | only the metabolites STBON D [+O–H2] and STBON D [+O] were identified |  | oxidized metabolites ([+O]) | conversion in glucuronidation experiments ([3]; human microsomes compared with horse microsomes, 90 min (Figure 7a)): higher signals for STBON D +GlcA and lower signals of the respective parental compound
C[C@@H]1CC[C@H]2C(C)(C)[C@H](O)CC[C@]2(C)[C@@]12Cc1c(O)cc(C=O)c(C=O)c1O2 [STDIAL, stachybotrydial] | all but the desaturated metabolites were formed | comparable to human microsomes | STDIAL [+O–H4] | 

Reference: PMC9227918 (Toxins, 2022)
